Results from patent US20040052922A1, “Nutritional and therapeutical preparations having antioxidant activity” (priority 2000, published 2004).

Columns and labels:
Assay type in all cases: in vivo, rat
[1] = test system: membrane of plasma platelets; assay: Membrane fluidity of plasma platelets (TMA-DPH fluorescent probe) in rats on hypercaloric, hyperlipidemizing diet; conditions: expressed as % compared with controls values at time 0; after 20 days of dietary treatment
Description: (§1) Rats received hypercaloric, hypertriglyceridemizing and hypercholesterolemizing diet. After twenty days of treatment, the effect of the compositions on the following parameters was evaluated: 80 Male rats, each weighing 150-200 g, were used. The animals were subdivided into 8 groups of 10 animals each: […] 20% casein; 3.5% mixture of oligoelements and mineral salts; 0.1% mixture of vitamins; 0.2% choline ditartrate; 2% cellulose; cholesterol 0.5%; 0.25% sodium cholate; 58.44% saccharose; 10.0% lard and 4.9% olive oil. […] 3rd group A: animals were treated with a polycosanols mixture (octacosanol=50%) of rice wax (PLC), animals received for 20 days the same diet as the controls, except that 0.5 g of rice wax polycosanols replaced in part a similar amount of olive oil (olive oil used: 4.4%). […] 5th group: treated with 1-piperoylpiperidine (P); animals received for 20 days the same diet as the controls, except that 0.025 g of 1-piperoylpiperidine replaced a similar amount of olive oil (olive oil used: 4.875%). […] Membrane fluidity of erythrocyte ghosts and plasma platelets was measured using TMA-DPH as fluorescent probe, according to the method by […]. et al., 1999, Thromb. Hoemost., 82 pp. 149.

[2] = test system: membrane of erythrocyte ghosts; assay: Membrane fluidity of erythrocyte ghosts (TMA-DPH fluorescent probe) in rats on hypercaloric, hyperlipidemizing diet; conditions: expressed as % compared with controls values at time 0; after 20 days of dietary treatment
Description: as §1

[3] = Total cholesterol, HDL cholesterol and triglycerids plasma levels in rats on hypercaloric diet
Description: (§2) Rats received hypercaloric, hypertriglyceridemizing and hypercholesterolemizing diet. After twenty days of treatment, the effect of the compositions on the following parameters was evaluated: 4) total cholesterol and HDL cholesterol plasma levels; 5) total triglycerids plasma levels. 80 Male rats, each weighing 150-200 g, were used. The animals were subdivided into 8 groups of 10 animals each: […] 20% casein; 3.5% mixture of oligoelements and mineral salts; 0.1% mixture of vitamins; 0.2% choline ditartrate; 2% cellulose; cholesterol 0.5%; 0.25% sodium cholate; 58.44% saccharose; 10.0% lard and 4.9% olive oil. […] 3rd group A: animals were treated with a polycosanols mixture (octacosanol=50%) of rice wax (PLC), animals received for 20 days the same diet as the controls, except that 0.5 g of rice wax polycosanols replaced in part a similar amount of olive oil (olive oil used: 4.4%). […] 5th group: treated with 1-piperoylpiperidine (P); animals received for 20 days the same diet as the controls, except that 0.025 g of 1-piperoylpiperidine replaced a similar amount of olive oil (olive oil used: 4.875%).

lipoperoxides = assay: Lipoperoxides levels (malonyldialdehyde) in plasma, liver, brain and heart of rats on hypercaloric diet
Description: Rats received hypercaloric, hypertriglyceridemizing and hypercholesterolemizing diet. After twenty days of treatment, the effect of the compositions on the following parameters was evaluated: 1) lipoperoxides levels in plasma, liver, brain and heart; 80 Male rats, each weighing 150-200 g, were used. […] 20% casein; 3.5% mixture of oligoelements and mineral salts; 0.1% mixture of vitamins; 0.2% choline ditartrate; 2% cellulose; cholesterol 0.5%; 0.25% sodium cholate; 58.44% saccharose; 10.0% lard and 4.9% olive oil. […] Malonyldialdehyde was evaluated according to the procedure by K. Yagi et al., 1982, in “Lipid Peroxides in Biology and Medicine”, Academic Press, New York, pp. 324-340.

[4] = Body weight of rats on hypercaloric diet
Description: as §2, with “2) body weight;” for “4) total cholesterol and HDL cholesterol plasma levels; 5) total triglycerids plasma levels.”

[5] = after 20 days of diet treatment
[6] = in brackets, control after 20 day diet = 100%

## O=C(/C=C/C=C/c1ccc2c(c1)OCO2)N1CCCCC1 [P, 1-piperoylpiperidine]
[1]
  membrane fluidity (plasma platelets): 70%
[2]
  membrane fluidity (erythrocyte ghosts): 73%
[3]; [5]
  HDL cholesterol: 29.3 ± 1.5 mg/dL
  Total cholesterol: 125.2 ± 12.5 mg/dL
  total triglycerids: 81.9 ± 8.7 mg/dL
[3]; [6]
  Total cholesterol, percent change vs control rats after 20 day diet: −0.7%
  total triglycerids, percent change vs control rats after 20 day diet: −0.7%
lipoperoxides; brain, after 20 day dietary treatment
  MDA BRAIN: 107 ± 5 n mols of malonyldialdehyde (MDA) per gram of tissue
lipoperoxides; brain, vs control rats after 20 days of diet
  Percent change vs. controls (MDA BRAIN): −0.9%
lipoperoxides; heart, after 20 day dietary treatment
  MDA HEART: 44 ± 7 n mols of malonyldialdehyde (MDA) per gram of tissue
lipoperoxides; heart, vs control rats after 20 days of diet
  Percent change compared with controls (MDA HEART): −2.2%
lipoperoxides; liver, after 20 day dietary treatment
  MDA LIVER: 43.5 ± 7.8 n mols of malonyldialdehyde (MDA) per gram of tissue
lipoperoxides; liver, vs control rats after 20 days of diet
  Percent change vs. controls (MDA LIVER): −1.5%
lipoperoxides; plasma, after 20 day dietary treatment
  MDA PLASMA: 5.0 ± 0.3 n mols of malonyldialdehyde (M
lipoperoxides; plasma, vs control rats after 20 days of diet
  Percent change vs. controls (MDA PLASMA): −1.9%
[4]; [5]
  body weight: 223 ± 16 g
[4]; [6]
  body weight, percent change vs control rats after 20 day diet: −0.4%
